PubChem BioAssay AID248 (DTP/NCI, 2004)
“And” between values parts separate entries of the source, which are not always exact repeats. Identical values can stand only once. Toxic doses and inconclusive results are not listed.

Tested on: L1210 leukemia ip in BDF1 mice, survival T/C
Experiment: NCI In Vivo Anticancer Drug Screen. Data for tumor model L1210 Leukemia (intraperitoneal) in B6D2F1 (BDF1) mice
Conditions: endpoint: mean survival time, higher = longer survival
In short: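 Each compound was tested against a transplantable tumor grown in mice. The endpoint was survival, with treated animals benchmarked against vehicle controls as a simple ratio.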

[1] = dose: 50.0 mg/kg/injection, schedule: Q04DX003 (ip), vehicle: saline
[2] = dose: 100.0 mg/kg/injection, schedule: Q04DX003 (ip), vehicle: saline
[3] = dose: 200.0 mg/kg/injection, schedule: Q04DX003 (ip), vehicle: saline
[4] = dose: 400.0 mg/kg/injection, schedule: Q04DX003 (ip), vehicle: saline
[5] = dose: 100.0 mg/kg/injection, schedule: Q01DX001 (ip), vehicle: saline
[6] = dose: 200.0 mg/kg/injection, schedule: Q01DX001 (ip), vehicle: saline
[7] = dose: 400.0 mg/kg/injection, schedule: Q01DX001 (ip), vehicle: saline
[8] = dose: 100.0 mg/kg/injection, schedule: Q04DX003 (ip), vehicle: saline with Tween-80
[9] = dose: 100.0 mg/kg/injection, schedule: Q01DX001 (ip), vehicle: carboxymethylcellulose (CMC)
[10] = dose: 200.0 mg/kg/injection, schedule: Q01DX001 (ip), vehicle: carboxymethylcellulose (CMC)
[11] = dose: 400.0 mg/kg/injection, schedule: Q04DX002 (ip), vehicle: saline with Tween-80
[12] = dose: 100.0 mg/kg/injection, schedule: Q01DX009 (ip), vehicle: Klucel (hydroxypropylcellulose) (HPC)
[13] = dose: 200.0 mg/kg/injection, schedule: Q01DX009 (ip), vehicle: Klucel (hydroxypropylcellulose) (HPC)

CCOP(=O)(CCP(=O)(CCP(=O)(OCC)OCC)CCP(=O)(OCC)OCC)OCC
T/C (dose: 50.0 mg/kg/injection, schedule: Q01DX009 (ip), vehicle: saline): 94 % of control
T/C [1]: 103 % of control
T/C (dose: 100.0 mg/kg/injection, schedule: Q01DX009 (ip), vehicle: saline): 94 % of control
T/C [2]: 103 % of control
T/C (dose: 200.0 mg/kg/injection, schedule: Q01DX009 (ip), vehicle: saline): 98 % of control
T/C [3]: 101 % of control
T/C [4]: 98 % of control

C=COC(=O)NC(CCC(=O)OC)C(=O)O (stereo unspecified)
T/C [5]: 92 % of control
T/C [6]: 101 % of control

CC(=O)NC1C(O)CC(O)(C(=O)O)OC1C(O)C(O)CO (stereo unspecified)
T/C [5]: 98 % of control
T/C [6]: 100 % of control
T/C [7]: 94 % of control

CCCN(CCC)C(=O)OCC
T/C (dose: 100.0 mg/kg/injection, schedule: Q01DX009 (ip), vehicle: saline with Tween-80): 97 % of control
T/C (dose: 200.0 mg/kg/injection, schedule: Q01DX009 (ip), vehicle: saline with Tween-80): 100 % of control

C=CCCCCCCCCC(=O)NCCN1CCOCC1
T/C [8]: 101 % of control

CCC1=C(C)C(C)OC(C)=C1C (stereo unspecified) (tested in a mixture with another compound)
T/C [5]: 93 % of control
T/C [6]: 90 % of control
T/C [7]: 93 % of control

c1ccc2c(CC3=NCCN3)cccc2c1
T/C (dose: 12.5 mg/kg/injection, schedule: Q01DX009 (ip), vehicle: saline with Tween-80): 96 % of control
T/C (dose: 25.0 mg/kg/injection, schedule: Q01DX009 (ip), vehicle: saline with Tween-80): 103 % of control

FC(F)(F)c1ccc(-c2ccc(OCCN3CCCC3)cc2)cc1
T/C (dose: 4.68 mg/kg/injection, schedule: Q01DX009 (ip), vehicle: saline): 97 % of control
T/C (dose: 9.37 mg/kg/injection, schedule: Q01DX009 (ip), vehicle: saline): 92 % of control
T/C (dose: 18.75 mg/kg/injection, schedule: Q01DX009 (ip), vehicle: saline): 94 % of control and 89 % of control
T/C (dose: 37.5 mg/kg/injection, schedule: Q01DX009 (ip), vehicle: saline): 90 % of control
T/C (dose: 37.5 mg/kg/injection, schedule: Q04DX003 (ip), vehicle: saline): 93 % of control
T/C (dose: 75.0 mg/kg/injection, schedule: Q04DX003 (ip), vehicle: saline): 102 % of control
T/C (dose: 150.0 mg/kg/injection, schedule: Q04DX003 (ip), vehicle: saline): 87 % of control

COc1ccc(OC)c(/C=C2\SC(=S)N(C3OC(COC(C)=O)C(OC(C)=O)C(OC(C)=O)C3OC(C)=O)C2=O)c1 (stereo unspecified)
T/C (dose: 25.0 mg/kg/injection, schedule: Q01DX005 (ip), vehicle: other): 101 % of control
T/C (dose: 50.0 mg/kg/injection, schedule: Q01DX005 (ip), vehicle: other): 108 % of control
T/C (dose: 100.0 mg/kg/injection, schedule: Q01DX005 (ip), vehicle: other): 101 % of control
T/C (dose: 200.0 mg/kg/injection, schedule: Q01DX005 (ip), vehicle: other): 97 % of control
T/C (dose: 400.0 mg/kg/injection, schedule: Q01DX005 (ip), vehicle: other): 104 % of control

O=C(O)c1nccc2c([N+](=O)[O-])cccc12
T/C [2]: 97 % of control
T/C [3]: 97 % of control
T/C [4]: 92 % of control

O=P(CCCCCCP(=O)(N1CC1)N1CC1)(N1CC1)N1CC1
T/C (dose: 25.0 mg/kg/injection, schedule: Q01DX009 (ip), vehicle: carboxymethylcellulose (CMC)): 112 % of control and 115 % of control
T/C (dose: 50.0 mg/kg/injection, schedule: Q01DX009 (ip), vehicle: carboxymethylcellulose (CMC)): 120 % of control and 121 % of control
T/C [9]: 116 % of control
T/C [10]: 103 % of control
T/C (dose: 200.0 mg/kg/injection, schedule: Q01DX009 (ip), vehicle: carboxymethylcellulose (CMC)): 98 % of control and 101 % of control

O=C(Nc1ccc(Cl)cc1)NC1CC1
T/C (dose: 62.5 mg/kg/injection, schedule: Q01DX009 (ip), vehicle: saline with Tween-80): 91 % of control
T/C (dose: 125.0 mg/kg/injection, schedule: Q01DX009 (ip), vehicle: saline with Tween-80): 90 % of control
T/C (dose: 250.0 mg/kg/injection, schedule: Q01DX009 (ip), vehicle: saline with Tween-80): 95 % of control

Clc1cccc(N=C(Oc2cccc(Cl)c2)c2ccccc2)c1
T/C (dose: 25.6 mg/kg/injection, schedule: Q04DX002 (ip), vehicle: saline with Tween-80): 176 % of control
T/C (dose: 64.0 mg/kg/injection, schedule: Q04DX002 (ip), vehicle: saline with Tween-80): 101 % of control
T/C (dose: 160.0 mg/kg/injection, schedule: Q04DX002 (ip), vehicle: saline with Tween-80): 97 % of control
T/C [11]: 93 % of control

CCCCC(C)C1(C)C(=O)NC(=O)NC1=O (stereo unspecified)
T/C (dose: 75.0 mg/kg/injection, schedule: Q01DX001 (ip), vehicle: saline): 105 % of control
T/C (dose: 150.0 mg/kg/injection, schedule: Q01DX001 (ip), vehicle: saline): 103 % of control
T/C (dose: 300.0 mg/kg/injection, schedule: Q01DX001 (ip), vehicle: saline): 105 % of control

NC(=O)n1ncnc1N
T/C (dose: 50.0 mg/kg/injection, schedule: Q01DX001 (ip), vehicle: carboxymethylcellulose (CMC)): 110 % of control
T/C [9]: 101 % of control
T/C [8]: 96 % of control
T/C [10]: 104 % of control
T/C (dose: 200.0 mg/kg/injection, schedule: Q04DX003 (ip), vehicle: saline with Tween-80): 97 % of control
T/C (dose: 400.0 mg/kg/injection, schedule: Q01DX001 (ip), vehicle: carboxymethylcellulose (CMC)): 104 % of control
T/C (dose: 400.0 mg/kg/injection, schedule: Q04DX003 (ip), vehicle: saline with Tween-80): 105 % of control

CC(C)c1ccc2c(c1)CCC1C(CN=C(N)CSS(=O)(=O)O)CCCC21C (stereo unspecified)
T/C (dose: 75.0 mg/kg/injection, schedule: Q01DX001 (ip), vehicle: saline with Tween-80): 95 % of control
T/C (dose: 150.0 mg/kg/injection, schedule: Q01DX001 (ip), vehicle: saline with Tween-80): 102 % of control

O=S1(=O)CC23CC=CCC2(CC=CC3)C1 (stereo unspecified)
T/C (dose: 50.0 mg/kg/injection, schedule: Q01DX009 (ip), vehicle: Klucel (hydroxypropylcellulose) (HPC)): 100 % of control
T/C [12]: 97 % of control
T/C [13]: 96 % of control

CCCCCCCCCCOC(=O)C[n+]1cccc(C(=O)Nc2ccc(Cl)cc2)c1
T/C (dose: 12.5 mg/kg/injection, schedule: Q04DX003 (ip), vehicle: saline): 97 % of control
T/C (dose: 25.0 mg/kg/injection, schedule: Q04DX003 (ip), vehicle: saline): 105 % of control
T/C [1]: 90 % of control

COC(=O)CCNCCSC(=O)c1ccccc1
T/C (dose: 100.0 mg/kg/injection, schedule: Q04DX003 (ip), vehicle: acetone): 103 % of control
T/C (dose: 200.0 mg/kg/injection, schedule: Q04DX003 (ip), vehicle: acetone): 105 % of control
T/C (dose: 400.0 mg/kg/injection, schedule: Q04DX003 (ip), vehicle: acetone): 102 % of control

CCOC(=O)c1ccc(Nc2sc(C(=O)c3ccc(-c4ccccc4)cc3)c(N)c2C#N)cc1
T/C (dose: 100.0 mg/kg/injection, schedule: Q04DX002 (ip), vehicle: saline with Tween-80): 92 % of control
T/C (dose: 200.0 mg/kg/injection, schedule: Q04DX002 (ip), vehicle: saline with Tween-80): 86 % of control
T/C [11]: 95 % of control

CN=C(N)c1ccc(N=C(N)c2ccc(N=C(N)c3ccc(N=C(O)c4cccc(C(O)=Nc5ccc(C(N)=Nc6ccc(C(N)=Nc7ccc(C(N)=NC)cc7)cc6)cc5)c4)cc3)cc2)cc1
T/C (dose: 13.0 mg/kg/injection, schedule: Q01DX015 (ip), vehicle: water): 186 % of control

CC(O)c1cccc(NC(=O)NC(C)(C)C)c1 (stereo unspecified)
T/C [12]: 102 % of control
T/C [13]: 107 % of control
T/C (dose: 400.0 mg/kg/injection, schedule: Q01DX009 (ip), vehicle: Klucel (hydroxypropylcellulose) (HPC)): 113 % of control

c1ccc(-c2ncnc3c2Cc2ccccc2-3)cc1
T/C (dose: 100.0 mg/kg/injection, schedule: Q04DX003 (ip), vehicle: saline sonified): 92 % of control
T/C (dose: 200.0 mg/kg/injection, schedule: Q04DX003 (ip), vehicle: saline sonified): 94 % of control
T/C (dose: 400.0 mg/kg/injection, schedule: Q04DX003 (ip), vehicle: saline sonified): 97 % of control

O=C(c1ccc(Br)cc1)C1C(c2ccccc2)N1C1CCCCC1 (stereo unspecified)
T/C (dose: 100.0 mg/kg/injection, schedule: Q04DX003 (ip), vehicle: Klucel (hydroxypropylcellulose) (HPC)): 98 % of control
T/C (dose: 200.0 mg/kg/injection, schedule: Q04DX003 (ip), vehicle: Klucel (hydroxypropylcellulose) (HPC)): 96 % of control
T/C (dose: 400.0 mg/kg/injection, schedule: Q04DX003 (ip), vehicle: Klucel (hydroxypropylcellulose) (HPC)): 93 % of control
